Measurements published in PMC7179434, “1,2,4-Triazolo[1,5-a]pyrimidines as a Novel Class of Inhibitors of the HIV-1 Reverse Transcriptase-Associated Ribonuclease H Activity” (Molecules, 2020).
Read-outs that look alike come from different tables or passages of the source.

How the values were obtained:
[1] = target: HIV-1 RNase H; parameters: method as in ref 17-25, 27-29 (per compound as in Figure 1 legend); conditions: known allosteric RNHIs; 27-29 (per compound as in Figure 1 legend); cited from earlier work
[2] = tested on: HIV-1 RDDP; parameters: method as in ref 17-21, 27-29 (per compound as in Figure 1 legend); conditions: known allosteric RNHIs; 27-29 (per compound as in Figure 1 legend); cited from earlier work
[3] = tested on: HIV-1 replication; conditions: 28 (per compound as in Figure 1 legend); cited from earlier work
[4] = target: HIV-1 RT-associated RDDP (Human immunodeficiency virus type 1 group M subtype B, UniProt P03366); experiment: biochemical; format: biochemical
[5] = target: HIV-1 RT-associated RNase H (Human immunodeficiency virus type 1 group M subtype B, UniProt P03366); experiment: biochemical; format: biochemical
[6] = tested on: HIV-2 (ROD strain); experiment: Anti-HIV-2 activity in acutely infected MT-4 cells (MTT); format: cell-based
[7] = tested on: HIV-1 (IIIB strain); format: cell-based; conditions: acutely infected MT-4 cells
[8] = wt RT, average and standard deviation of three independent experiments in duplicate

Row | SMILES | IC50 [4] [µM] | IC50 [5] [µM] | melting point [°C] | further results
1 | O=C(O)c1ccc(-c2cccc(/C=N/NC(=O)c3ccc(O)c(O)c3)c2)cc1 [Compound 2] | – | – | – | IC50 [1]: 400 nM; IC50 [2]: > 50000 nM
2 | O=C1Nc2ccccc2/C1=N\Nc1nc(-c2ccc(O)c(O)c2)cs1 [Compound 3] | – | – | – | IC50 [1]: 2000 nM; EC50 (HIV-1 replication) [3]: not active; IC50 [2]: 1400 nM
3 | N#Cc1ccc(-c2csc(N/N=C3/C(=O)Nc4ccccc43)n2)cc1 [Compound 4] | – | – | – | IC50 [1]: 1300 nM; IC50 [2]: 9800 nM
4 | Cc1sc2nc(-c3ccc([N+](=O)[O-])cc3)[nH]c(=O)c2c1C [Compound 6] | – | – | – | IC50 [1]: 850 nM
5 | O=C(Nc1sc2c(c1C(=O)Nc1ccccn1)CCCCC2)c1ccc(O)c(O)c1 [Compound 8] | – | – | – | IC50 [1]: 840 nM; EC50 (HIV-1 replication) [3]: not active; IC50 [2]: 20900 nM
6 | O=c1oc(-c2ccc(O)c(O)c2)nc2sc3ccccc3c12 [Compound 9] | – | – | – | IC50 [1]: 530 nM; EC50 (HIV-1 replication) [3]: not active; IC50 [2]: 2900 nM
7 | CCCCCCCC/C=C\CCCCCCCCNC(=O)/C=C/c1ccc(O)c(O)c1 [Compound 10] | – | – | – | IC50 [1]: 680 nM; IC50 [2]: 2300 nM
8 | CCCCOc1ccc(C(=O)Nc2nc3n(n2)C(c2ccccc2)C=C(C)N3)cc1 (centres unmarked) [Compound 11a] | > 100 | 17.7 ± 2.7 | – | –
9 | CCCCc1ccc(C(=O)Nc2nc3n(n2)C(c2ccccc2)C=C(C)N3)cc1 (centres unmarked) [Compound 11b] | > 100 | 13.1 ± 2.2 | – | anti-HIV-2 (ROD strain) activity [6]: none of the compounds having RNase H inhibition showed anti-HIV activity at concentrations lower than those cytotoxic; anti-HIV-1 (IIIB strain) activity [7]: none of the compounds having RNase H inhibition showed anti-HIV activity at concentrations lower than those cytotoxic
10 | CCCCc1ccc(C(=O)Nc2nc3nc(C)cc(-c4ccccc4)n3n2)cc1 [Compound 12b, 4-Butyl-N-(5-methyl-7-phenyl-[1,2,4]triazolo[1,5-a]pyrimidin-2-yl)benzamide] | > 100 | 12.3 ± 1.5 | 157 to 158 | –
11 | Cc1cc(-c2ccccc2)n2nc(NC(=O)c3ccccc3F)nc2n1 [Compound 12c, 2-Fluoro-N-(5-methyl-7-phenyl[1,2,4]triazolo[1,5-a]pyrimidin-2-yl)benzamide] | > 100 | > 100 | 292 to 302 | –
12 | Cc1cc(-c2ccccc2)n2nc(NC(=O)c3ccc([N+](=O)[O-])cc3)nc2n1 [Compound 12d, N-(5-Methyl-7-phenyl-[1,2,4]triazolo[1,5-a]pyrimidin-2-yl)-4-nitrobenzamide] | > 100 | > 100 | 290 to 293 | –
13 | Cc1cc(-c2ccccc2)n2nc(NC(=O)c3ccc(N)cc3)nc2n1 [Compound 12e, 4-Amino-N-(5-methyl-7-phenyl-[1,2,4]triazolo[1,5-a]pyrimidin-2-yl)benzamide] | > 100 | > 100 | 179 to 202 | –
14 | COc1ccc(C(=O)Nc2nc3nc(C)cc(-c4ccccc4)n3n2)cc1OC [Compound 12f, 3,4-Dimethoxy-N-(5-methyl-7-phenyl-[1,2,4]triazolo[1,5-a]pyrimidin-2-yl)benzamide] | > 100 | > 100 | 131 to 151 | –
15 | Cc1cc(-c2ccccc2)nc2nc(NC(=O)c3ccccc3F)nn12 [Compound 13c, 2-Fluoro-N-(7-methyl-5-phenyl-[1,2,4]triazolo[1,5-a]pyrimidin-2-yl)benzamide] | > 100 | > 100 | 165 to 169 | –
16 | Cc1cc(-c2ccccc2)nc2nc(NC(=O)c3ccc([N+](=O)[O-])cc3)nn12 [Compound 13d, N-(7-Methyl-5-phenyl-[1,2,4]triazolo[1,5-a]pyrimidin-2-yl)-4-nitrobenzamide] | > 100 | 60.1 ± 3.3 | 316 to 318 | –
17 | Cc1cc(-c2ccccc2)nc2nc(NC(=O)c3ccc(N)cc3)nn12 [Compound 13e, 4-Amino-N-(7-methyl-5-phenyl-[1,2,4]triazolo[1,5-a]pyrimidin-2-yl)benzamide] | > 100 | > 100 | 318 to 319 | –
18 | COc1ccc(C(=O)Nc2nc3nc(-c4ccccc4)cc(C)n3n2)cc1OC [Compound 13f, 3,4-Dimethoxy-N-(7-methyl-5-phenyl-[1,2,4]triazolo[1,5-a]pyrimidin-2-yl)benzamide] | > 100 | > 100 | 175 to 179 | –
19 | CCCCc1ccc(C(=O)Nc2nc3nc(C)cc(C)n3n2)cc1 [Compound 14b, 4-Butyl-N-(5,7-dimethyl-[1,2,4]triazolo[1,5-a]pyrimidin-2-yl)benzamide] | – | > 100 | 175 to 177 | HIV-1 RNaseH IC50 [5, 8]: complete loss of activity
20 | Cc1cc(C)n2nc(NC(=O)c3ccccc3F)nc2n1 [Compound 14c, N-(5,7-Dimethyl-[1,2,4]triazolo[1,5-a]pyrimidin-2-yl)-2-fluorobenzamide] | > 100 | > 100 | 195 to 200 | –
21 | Cc1cc(C)n2nc(NC(=O)c3ccc([N+](=O)[O-])cc3)nc2n1 [Compound 14d, N-(5,7-Dimethyl-[1,2,4]triazolo[1,5-a]pyrimidin-2-yl)-4-nitrobenzamide] | > 100 | > 100 | 273 to 276 | –
22 | Cc1cc(C)n2nc(NC(=O)c3ccc(N)cc3)nc2n1 [Compound 14e, 4-Amino-N-(5,7-dimethyl-[1,2,4]triazolo[1,5-a]pyrimidin-2-yl)benzamide] | > 100 | > 100 | 248 to 258 | –
23 | COc1ccc(C(=O)Nc2nc3nc(C)cc(C)n3n2)cc1OC [Compound 14f, N-(5,7-Dimethyl-[1,2,4]triazolo[1,5-a]pyrimidin-2-yl)-3,4-dimethoxybenzamide] | > 100 | > 100 | 190 to 194 | –
24 | Cc1cc(C)n2nc(NC(=O)c3ccc(O)c(O)c3)nc2n1 [Compound 14g, N-(5,7-Dimethyl-[1,2,4]triazolo[1,5-a]pyrimidin-2-yl)-3,4-dihydroxybenzamide] | > 100 | 6.23 ± 0.01 | 299 to 301 | –
25 | COc1ccc(-c2cc(C)nc3nc(N(C(=O)c4ccccc4)C(=O)c4ccccc4)nn23)cc1OC [Compound 16hh, N-benzoyl-N-(7-(3,4-dimethoxyphenyl)-5-methyl-[1,2,4]triazolo[1,5-a]pyrimidin-2-yl)benzamide] | > 100 | 6.74 ± 0.55 | – | HIV-1 RNaseH IC50 [5, 8]: low micromolar range
26 | Cc1cc(-c2ccccc2)nc2nc(C(=O)Nc3ccc(O)c(O)c3)nn12 [Compound 19g, N-(3,4-Dihydroxyphenyl)-7-methyl-5-phenyl-[1,2,4]triazolo[1,5-a]pyrimidine-2-carboxamide] | – | 43.1 ± 2.1 | 247 to 250 | HIV-1 RNaseH IC50 [5, 8]: markedly decreased anti-RNase H activity
27 | CCOC(=O)C(=O)CC(=O)C=Cc1cccn1Cc1ccc(F)cc1 [RDS1643, reference compound] | – | – | – | IC50 ([5]; wt RT, average and standard deviation of three independent experiments in duplicate, read-out: HIV-1 RNaseH IC50): 9 ± 2 µM
